Reference: PubChem BioAssay AID328 (DTP/NCI, 2004)
Where “and” joins values, the source holds several entries; their conditions need not be identical. Equal values may be shown once. Toxic doses and inconclusive results are not listed. Residues, ends and D or L forms follow the SMILES beside them.

System: BDF1 mice, P388 leukemia ip, median survival T/C
Experiment: NCI In Vivo Anticancer Drug Screen. Data for tumor model P388 Leukemia (intraperitoneal) in B6D2F1 (BDF1) mice
Details: endpoint: median survival time, higher = longer survival
Summary of the method: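 T/C = treated-group survival ÷ vehicle-control survival; tumour transplanted into mice before dosing.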

[1] = dose: 25.0 mg/kg/injection, schedule: Q01DX009 (ip), vehicle: Klucel (hydroxypropylcellulose) (HPC)
[2] = dose: 100.0 mg/kg/injection, schedule: Q01DX009 (ip), vehicle: Klucel (hydroxypropylcellulose) (HPC)
[3] = dose: 100.0 mg/kg/injection, schedule: Q04DX003 (ip), vehicle: Klucel (hydroxypropylcellulose) (HPC)
[4] = dose: 200.0 mg/kg/injection, schedule: Q01DX009 (ip), vehicle: Klucel (hydroxypropylcellulose) (HPC)
[5] = dose: 200.0 mg/kg/injection, schedule: Q04DX003 (ip), vehicle: Klucel (hydroxypropylcellulose) (HPC)
[6] = dose: 400.0 mg/kg/injection, schedule: Q04DX003 (ip), vehicle: Klucel (hydroxypropylcellulose) (HPC)
[7] = dose: 50.0 mg/kg/injection, schedule: Q04DX003 (ip), vehicle: Klucel (hydroxypropylcellulose) (HPC)
[8] = dose: 100.0 mg/kg/injection, schedule: Q01DX009 (ip), vehicle: saline with Tween-80
[9] = dose: 200.0 mg/kg/injection, schedule: Q01DX009 (ip), vehicle: saline with Tween-80
[10] = dose: 12.5 mg/kg/injection, schedule: Q01DX009 (ip), vehicle: saline with Tween-80
[11] = dose: 100.0 mg/kg/injection, schedule: Q01DX009 (ip), vehicle: saline
[12] = dose: 200.0 mg/kg/injection, schedule: Q01DX009 (ip), vehicle: saline
[13] = dose: 400.0 mg/kg/injection, schedule: Q01DX009 (ip), vehicle: saline
[14] = dose: 100.0 mg/kg/injection, schedule: Q04DX003 (ip), vehicle: saline with Tween-80
[15] = dose: 200.0 mg/kg/injection, schedule: Q04DX003 (ip), vehicle: saline with Tween-80
[16] = dose: 400.0 mg/kg/injection, schedule: Q04DX003 (ip), vehicle: saline with Tween-80
[17] = dose: 50.0 mg/kg/injection, schedule: Q01DX009 (ip), vehicle: saline with Tween-80
[18] = dose: 400.0 mg/kg/injection, schedule: Q01DX009 (ip), vehicle: Klucel (hydroxypropylcellulose) (HPC)
[19] = dose: 100.0 mg/kg/injection, schedule: Q04DX003 (ip), vehicle: saline
[20] = dose: 200.0 mg/kg/injection, schedule: Q04DX003 (ip), vehicle: saline
[21] = dose: 400.0 mg/kg/injection, schedule: Q04DX003 (ip), vehicle: saline

With `N#C/C(=C1C=C(Br)/C(=N\O)C=C\1Cl)c1ccc(Cl)cc1` the T/C [1] was 115 % of control, the T/C (dose: 50.0 mg/kg/injection, schedule: Q01DX009 (ip), vehicle: Klucel (hydroxypropylcellulose) (HPC)) was 110 % of control and the T/C [2] was 115 % of control and 123 % of control. The T/C [3] was 100 % of control, the T/C (dose: 150.0 mg/kg/injection, schedule: Q01DX009 (ip), vehicle: Klucel (hydroxypropylcellulose) (HPC)) was 109 % of control and the T/C [4] was 123 % of control. For the same compound, the T/C [5] was 118 % of control, the T/C (dose: 225.0 mg/kg/injection, schedule: Q01DX009 (ip), vehicle: Klucel (hydroxypropylcellulose) (HPC)) was 109 % of control and the T/C [6] was 113 % of control.
In the case of `CC(O)(CCCCCCCC(C)(O)c1ccccc1)c1ccccc1` (configuration not stated), the T/C (dose: 100.0 mg/kg/injection, schedule: Q01DX001 (ip), vehicle: saline with Tween-80) is reported as 100 % of control, the T/C (dose: 200.0 mg/kg/injection, schedule: Q01DX001 (ip), vehicle: saline with Tween-80) is reported as 100 % of control and the T/C (dose: 400.0 mg/kg/injection, schedule: Q01DX001 (ip), vehicle: saline with Tween-80) is reported as 100 % of control.
In the case of `CCNCc1cc(Nc2cc(C)nc(/N=C(\N)Nc3ccc(Cl)c(Cl)c3)n2)ccc1OC`, the T/C (dose: 6.25 mg/kg/injection, schedule: Q01DX009 (ip), vehicle: Klucel (hydroxypropylcellulose) (HPC)) is reported as 90 % of control, the T/C (dose: 8.75 mg/kg/injection, schedule: Q04DX003 (ip), vehicle: Klucel (hydroxypropylcellulose) (HPC)) is reported as 112 % of control and the T/C (dose: 12.5 mg/kg/injection, schedule: Q01DX009 (ip), vehicle: Klucel (hydroxypropylcellulose) (HPC)) is reported as 100 % of control. For the same compound, the T/C (dose: 17.5 mg/kg/injection, schedule: Q04DX003 (ip), vehicle: Klucel (hydroxypropylcellulose) (HPC)) was 108 % of control, the T/C [1] was 90 % of control and the T/C (dose: 33.0 mg/kg/injection, schedule: Q04DX003 (ip), vehicle: Klucel (hydroxypropylcellulose) (HPC)) was 116 % of control. For the same compound, the T/C (dose: 35.0 mg/kg/injection, schedule: Q04DX003 (ip), vehicle: Klucel (hydroxypropylcellulose) (HPC)) was 108 % of control, the T/C [7] was 108 % of control and the T/C (dose: 75.0 mg/kg/injection, schedule: Q04DX003 (ip), vehicle: Klucel (hydroxypropylcellulose) (HPC)) was 108 % of control. For the same compound, the T/C (dose: 80.0 mg/kg/injection, schedule: Q04DX003 (ip), vehicle: Klucel (hydroxypropylcellulose) (HPC)) was 109 % of control.
For `CCCCCCCCCCCCS(=O)CC(C)O` (configuration not stated), the T/C (dose: 100.0 mg/kg/injection, schedule: Q01DX009 (ip), vehicle: other) was 123 % of control.
For `CC(C)CNC(=S)/N=C1\CCN(c2ccccc2)N1`, the T/C (dose: 4.5 mg/kg/injection, schedule: Q01DX009 (ip), vehicle: saline with Tween-80) was 118 % of control, the T/C (dose: 9.0 mg/kg/injection, schedule: Q01DX009 (ip), vehicle: saline with Tween-80) was 86 % of control and the T/C (dose: 18.0 mg/kg/injection, schedule: Q01DX009 (ip), vehicle: saline with Tween-80) was 92 % of control.
For `Cc1cc(N(CCCl)CCCl)ccc1C=Nc1ccccc1C(=O)O`, the T/C [8] was 164 % of control and the T/C [9] was 180 % of control.
With `COc1cc(/C=C/C(=O)c2ccc3c(c2)OCO3)ccc1OCc1ccccc1` the T/C (dose: 6.25 mg/kg/injection, schedule: Q01DX009 (ip), vehicle: water) was 100 % of control, the T/C (dose: 12.5 mg/kg/injection, schedule: Q01DX009 (ip), vehicle: water) was 100 % of control and the T/C (dose: 25.0 mg/kg/injection, schedule: Q01DX009 (ip), vehicle: water) was 106 % of control and 108 % of control. The T/C (dose: 50.0 mg/kg/injection, schedule: Q01DX009 (ip), vehicle: water) was 95 % of control and 110 % of control, the T/C (dose: 50.0 mg/kg/injection, schedule: Q04DX003 (ip), vehicle: water) was 86 % of control and the T/C (dose: 100.0 mg/kg/injection, schedule: Q01DX009 (ip), vehicle: water) was 95 % of control. For the same compound, the T/C (dose: 100.0 mg/kg/injection, schedule: Q04DX003 (ip), vehicle: water) was 100 % of control, the T/C (dose: 200.0 mg/kg/injection, schedule: Q01DX009 (ip), vehicle: water) was 97 % of control and 110 % of control and the T/C (dose: 200.0 mg/kg/injection, schedule: Q04DX003 (ip), vehicle: water) was 87 % of control. The T/C (dose: 400.0 mg/kg/injection, schedule: Q04DX003 (ip), vehicle: water) was 89 % of control.
In the case of `C[N+](C)(CC(=O)Nc1ccc(Cl)c(Cl)c1)Cc1ccc(Cl)c(Cl)c1`, the T/C (dose: 6.25 mg/kg/injection, schedule: Q01DX009 (ip), vehicle: saline with Tween-80) is reported as 120 % of control and the T/C [10] is reported as 108 % of control.
`CC(C)C1CCC2=C(CCC3C(C)(C(=O)O)CCCC23C)C1` (configuration not stated) was tested, and the T/C [11] was 109 % of control, the T/C [12] was 100 % of control and the T/C [13] was 100 % of control.
For `Nc1c(C(=O)O)cccc1C(=O)O`, the T/C [8] was 104 % of control, the T/C [14] was 100 % of control and the T/C [9] was 109 % of control. The T/C [15] was 100 % of control, the T/C (dose: 400.0 mg/kg/injection, schedule: Q01DX009 (ip), vehicle: saline with Tween-80) was 113 % of control and the T/C [16] was 95 % of control.
With `Cc1ccc(C(=O)CCl)c(C)c1` the T/C [10] was 100 % of control, the T/C (dose: 25.0 mg/kg/injection, schedule: Q01DX009 (ip), vehicle: saline with Tween-80) was 100 % of control and the T/C [17] was 95 % of control.
For `C[C@]12CCCC[C@@H]1CC[C@@H]1[C@@H]2[C@@H](O)C[C@@]2(C)[C@H]1CC[C@]2(C)O`, the T/C [17] was 104 % of control, the T/C [8] was 95 % of control and the T/C [9] was 100 % of control.
`Nc1cc(C(F)(F)F)ccc1S(=O)(=O)O` was tested, and the T/C (dose: 100.0 mg/kg/injection, schedule: Q01DX001 (ip), vehicle: Klucel (hydroxypropylcellulose) (HPC)) was 100 % of control, the T/C (dose: 200.0 mg/kg/injection, schedule: Q01DX001 (ip), vehicle: Klucel (hydroxypropylcellulose) (HPC)) was 100 % of control and the T/C (dose: 400.0 mg/kg/injection, schedule: Q01DX001 (ip), vehicle: Klucel (hydroxypropylcellulose) (HPC)) was 100 % of control.
With `CC(C)C(N)C(=O)NC(CO)C(=O)O` (stereo not drawn) (H-Val-Ser-OH; configuration not given here) the T/C (dose: 50.0 mg/kg/injection, schedule: Q01DX005 (ip), vehicle: saline) was 99 % of control, the T/C (dose: 100.0 mg/kg/injection, schedule: Q01DX005 (ip), vehicle: saline) was 106 % of control and the T/C (dose: 200.0 mg/kg/injection, schedule: Q01DX005 (ip), vehicle: saline) was 92 % of control.
In the case of `CCC(C)c1ccccc1OC(=O)Nc1ccc(OC)cc1` (configuration not stated), the T/C [7] is reported as 95 % of control, the T/C [3] is reported as 100 % of control and the T/C [5] is reported as 100 % of control.
With `CSc1ssc(=Nc2ccc(C)cc2)c1-c1ccccc1` the T/C [3] was 105 % of control, the T/C [4] was 90 % of control and the T/C [5] was 100 % of control. For the same compound, the T/C [18] was 95 % of control and the T/C [6] was 95 % of control.
`C=CC(=O)NC(Cc1ccccc1)C(=O)O` (configuration not stated) was tested, and the T/C [17] was 102 % of control, the T/C [8] was 98 % of control and the T/C [9] was 99 % of control.
For `COc1c(C(C)(C)C)cc([N+](=O)[O-])c(C)c1[N+](=O)[O-]`, the T/C [3] was 100 % of control, the T/C [5] was 100 % of control and the T/C [6] was 95 % of control.
For `COC(=O)OCCOC(=O)OC`, the T/C [11] was 100 % of control, the T/C [19] was 95 % of control and the T/C [12] was 110 % of control. The T/C [20] was 100 % of control, the T/C [13] was 100 % of control and the T/C [21] was 100 % of control.
For `NC(=O)N(CCO)CCO`, the T/C [11] was 100 % of control, the T/C [19] was 100 % of control and the T/C [12] was 90 % of control. The T/C [20] was 100 % of control, the T/C [13] was 100 % of control and the T/C [21] was 100 % of control.
In the case of `CCCCCCCCNc1ccccc1`, the T/C (dose: 100.0 mg/kg/injection, schedule: Q01DX001 (ip), vehicle: saline sonified) is reported as 87 % of control and the T/C (dose: 400.0 mg/kg/injection, schedule: Q01DX001 (ip), vehicle: saline sonified) is reported as 91 % of control.
`CC1=C(C)C(=O)c2c(OC(=O)c3ccccc3)c(Cl)cc(OC(=O)c3ccccc3)c2C1=O` was tested, and the T/C (dose: 25.0 mg/kg/injection, schedule: Q04DX003 (ip), vehicle: saline with Tween-80) was 93 % of control, the T/C (dose: 50.0 mg/kg/injection, schedule: Q04DX003 (ip), vehicle: saline with Tween-80) was 92 % of control and the T/C [14] was 89 % of control and 94 % of control. The T/C [15] was 93 % of control and the T/C [16] was 109 % of control.
`CCC/C(=C\C(=O)O)CC` was tested, and the T/C [2] was 109 % of control, the T/C [4] was 100 % of control and the T/C [18] was 104 % of control.
